In PubChem BioAssay AID1745844 (Carcinogenic Potency Database (CPDB), 2022):

Test system: rodent lifetime carcinogenesis bioassay, tumor incidence TD50
Test: carcinogenic potency in animals, long-term in vivo studies, CPDB compilation (AID 1745844)
Conditions: rat, strain Fischer 344, by gavage

## ClCC(Cl)CCl
females, site: mammary gland, lesion: fibroadenoma, dosed 91 weeks, study length 105 weeks
  TD50: 3.42 mg/kg/day
females, site: palate + pharynx + tongue, lesion: squamous-cell papilloma + squamous-cell carcinoma, dosed 91 weeks, study length 105 weeks
  TD50: 2.93 mg/kg/day
females, site: palate + pharynx, lesion: squamous-cell carcinoma, dosed 91 weeks, study length 105 weeks
  TD50: 8.87 mg/kg/day
females, site: palate + tongue, lesion: squamous-cell papilloma, dosed 91 weeks, study length 105 weeks
  TD50: 5.98 mg/kg/day
females, site: palate, lesion: squamous-cell papilloma, dosed 91 weeks, study length 105 weeks
  TD50: 18.5 mg/kg/day
females, site: pharynx + tongue, lesion: squamous-cell carcinoma, dosed 91 weeks, study length 105 weeks
  TD50: 5.12 mg/kg/day
females, site: thyroid gland, lesion: follicular-cell adenoma + follicular-cell carcinoma, dosed 91 weeks, study length 105 weeks
  TD50: 25.2 mg/kg/day
females, site: thyroid gland, lesion: follicular-cell adenoma, dosed 91 weeks, study length 105 weeks
  TD50: 36.9 mg/kg/day
females, site: tongue, lesion: squamous-cell carcinoma + squamous-cell papilloma, dosed 91 weeks, study length 105 weeks
  TD50: 4.7 mg/kg/day
females, site: tongue, lesion: squamous-cell carcinoma, dosed 91 weeks, study length 105 weeks
  TD50: 10.1 mg/kg/day
females, site: tongue, lesion: squamous-cell papilloma, dosed 91 weeks, study length 105 weeks
  TD50: 9.61 mg/kg/day
males, site: Zymbal's gland, lesion: carcinoma, dosed 94 weeks, study length 104 weeks
  TD50: 297 mg/kg/day
males, site: adrenal medulla, lesion: pheochromocytoma benign, bilateral + pheochromocytoma, benign, dosed 94 weeks, study length 104 weeks
  TD50: 12.4 mg/kg/day
males, site: adrenal medulla, lesion: pheochromocytoma benign, bilateral + pheochromocytoma, complex + pheochromocytoma, malignant + pheochromocytoma, benign, dosed 94 weeks, study length 104 weeks
  TD50: 11.4 mg/kg/day
males, site: all sites, lesion: mononuclear-cell leukemia, dosed 94 weeks, study length 104 weeks
  TD50: 11.9 mg/kg/day
males, site: any site (literature study), lesion: several types, types named in the paper, dosed 94 weeks, study length 104 weeks
  TD50: 1.36 mg/kg/day
males, site: colon + jejunum + rectum, lesion: adenocarcinoma + adenomatous polyp, dosed 94 weeks, study length 104 weeks
  TD50: 73.4 mg/kg/day
males, site: colon + jejunum, lesion: adenocarcinoma, dosed 94 weeks, study length 104 weeks
  TD50: 102 mg/kg/day
males, site: colon + rectum, lesion: adenomatous polyp, dosed 94 weeks, study length 104 weeks
  TD50: 264 mg/kg/day
males, site: forestomach + kidney + palate + pancreas + preputial gland + tongue + Zymbal's gland, lesion: squamous-cell carcinoma + squamous-cell papilloma + tubule adenoma + adenoma + acinar-cell adenoma + acinar-cell adenocarcinoma + ca, dosed 94 weeks, study length 104 weeks
  TD50: 1.1 mg/kg/day
males, site: forestomach, lesion: squamous-cell carcinoma + squamous-cell papilloma, dosed 94 weeks, study length 104 weeks
  TD50: 1.15 mg/kg/day
males, site: forestomach, lesion: squamous-cell carcinoma, dosed 94 weeks, study length 104 weeks
  TD50: 3 mg/kg/day
males, site: forestomach, lesion: squamous-cell papilloma, dosed 94 weeks, study length 104 weeks
  TD50: 1.53 mg/kg/day
males, site: kidney, lesion: tubule adenoma, dosed 94 weeks, study length 104 weeks
  TD50: 4.44 mg/kg/day
males, site: liver, lesion: hepatocellular adenoma + hepatoblastoma + hepatocellular carcinoma, dosed 94 weeks, study length 104 weeks
  TD50: 23 mg/kg/day
males, site: liver, lesion: hepatocellular adenoma + hepatocellular carcinoma, dosed 94 weeks, study length 104 weeks
  TD50: 23 mg/kg/day
males, site: liver, lesion: hepatocellular adenoma, dosed 94 weeks, study length 104 weeks
  TD50: 31.7 mg/kg/day
males, site: palate + tongue, lesion: squamous-cell carcinoma + squamous-cell papilloma, dosed 94 weeks, study length 104 weeks
  TD50: 4.48 mg/kg/day
males, site: palate + tongue, lesion: squamous-cell carcinoma, dosed 94 weeks, study length 104 weeks
  TD50: 8.65 mg/kg/day
males, site: palate + tongue, lesion: squamous-cell papilloma, dosed 94 weeks, study length 104 weeks
  TD50: 8.16 mg/kg/day
males, site: palate, lesion: squamous-cell carcinoma, dosed 94 weeks, study length 104 weeks
  TD50: 11.7 mg/kg/day
males, site: palate, lesion: squamous-cell papilloma, dosed 94 weeks, study length 104 weeks
  TD50: 36.6 mg/kg/day
males, site: pancreas, lesion: acinar-cell adenocarcinoma, dosed 94 weeks, study length 104 weeks
  TD50: 51.5 mg/kg/day
males, site: pancreas, lesion: adenoma + acinar-cell adenoma + acinar-cell adenocarcinoma, dosed 94 weeks, study length 104 weeks
  TD50: 1.65 mg/kg/day
males, site: pancreas, lesion: adenoma + acinar-cell adenoma, dosed 94 weeks, study length 104 weeks
  TD50: 1.65 mg/kg/day
males, site: preputial gland, lesion: adenoma + carcinoma, dosed 94 weeks, study length 104 weeks
  TD50: 9.59 mg/kg/day
males, site: preputial gland, lesion: adenoma, dosed 94 weeks, study length 104 weeks
  TD50: 14 mg/kg/day
males, site: preputial gland, lesion: carcinoma, dosed 94 weeks, study length 104 weeks
  TD50: 28 mg/kg/day
males, site: skin, lesion: basal-cell carcinoma + keratoacanthoma + squamous-cell carcinoma + squamous-cell papilloma + trichoepithelioma, dosed 94 weeks, study length 104 weeks
  TD50: 20.8 mg/kg/day
males, site: skin, lesion: squamous-cell carcinoma + squamous-cell papilloma, dosed 94 weeks, study length 104 weeks
  TD50: 39.6 mg/kg/day
males, site: skin, lesion: squamous-cell papilloma, dosed 94 weeks, study length 104 weeks
  TD50: 51 mg/kg/day
males, site: subcutaneous tissue, lesion: fibroma + sarcoma, dosed 94 weeks, study length 104 weeks
  TD50: 19.6 mg/kg/day
males, site: subcutaneous tissue, lesion: fibroma, dosed 94 weeks, study length 104 weeks
  TD50: 20.2 mg/kg/day
males, site: testis, lesion: interstitial-cell adenoma, bilateral + interstitial-cell adenoma, dosed 94 weeks, study length 104 weeks
  TD50: 1.35 mg/kg/day
males, site: thyroid gland, lesion: c-cell adenoma + c-cell carcinoma, dosed 94 weeks, study length 104 weeks
  TD50: 8.15 mg/kg/day
males, site: thyroid gland, lesion: c-cell adenoma, dosed 94 weeks, study length 104 weeks
  TD50: 10.3 mg/kg/day
males, site: thyroid gland, lesion: follicular-cell adenoma + follicular-cell carcinoma, dosed 94 weeks, study length 104 weeks
  TD50: 35.2 mg/kg/day
males, site: tongue, lesion: squamous-cell carcinoma + squamous-cell papilloma, dosed 94 weeks, study length 104 weeks
  TD50: 7.86 mg/kg/day
males, site: tongue, lesion: squamous-cell carcinoma, dosed 94 weeks, study length 104 weeks
  TD50: 34.7 mg/kg/day
males, site: tongue, lesion: squamous-cell papilloma, dosed 94 weeks, study length 104 weeks
  TD50: 10.2 mg/kg/day
